Data from patent publication US6344217B1, “Putamen OVI” (priority 1994, dated 2002).
Where “and” joins values, the source holds several entries; their conditions need not be identical. Equal values may be shown once. Entries after “also recorded” stand apart in the source; their conditions may differ.

Experiments:
Male Wistar rats [1] = assay: Haematology (WBC, RBC) after 7-day intragastral treatment of rats; format: in vivo, rat
Protocol: (§1) Male Wistar rats having an average body weight of 322.5 g were kept under conventional conditions at a room temperature of 21±1° C., a relative atmospheric humidity of about 60% and a 12 hour day/night cycle. Prior to the start of the experiment, they where subjected to an acclimatization to those keeping conditions for 12 days.
(§2) Feeding was performed with the pelletized standard diet Altromin C 1000, Misch. Nr. 100 (Altrogge). The animals were given tap water ad libidum as drinking water.
(§3) 1. Coated tablet core granules, micronized with putamen ovi; 1 coated tablet core aar® os with 640 mg contains 440 mg of putamen ovi, micronized, corresponding to 160 mg of calcium; Dosage form: Putamen ovi, coated tablet core granules, 146 mg (≡100 mg of putamen ovi, micronized≈36.5 mg of Ca) is suspended in 2 ml of dist. water (POS), 0.5 ml (POS)≡9.125 mg of Ca (PO)/[…]
(§4) The suspension were freshly prepared immediately before the administration and homogeneously administered. The control animals were given physiological saline in an equivalent volume.
erythrocytes (RBC), leucocytes (WBC), platelets (PLT), hemoglobin (HGB), hematocrit (HCT)
By means of the fully automated hematology analyzer Sysmex K-1000, the following were determined: WBC, RBC, PLT as well as HGB and HCT, further MCV, MCH and MCHC. The main unit of this device essentially consists of a hydraulic (HS) and an electronic (ES) system. The HS is used for sucking, pipetting, diluting, mixing and lysing. The ES analyzes and converts the signals from the HS and submits the results to the printer. With the aid of microprocessors, the ES also monitors the test runs, the testing station, and performs a quality control.
The hematocrit value corresponds to the percent volume fraction of erythrocytes in blood. In addition to the number of erythrocytes and the hematocrit value, the level of hemoglobin, the chromoprotein contained in the erythrocytes, is an important criterion for the diagnostics of anemias. Classification is performed by the erythrocyte indices. Erythrocyte size and hemoglobin content are characterized by the erythrocyte volume (MCV=mean corpuscular volume), the hemoglobin content of the erythrocytes (MCH=mean corpuscular hemoglobin), and the mean corpuscular hemoglobin concentration (MCHC). The erythrocyte distribution width (RDW=red cell distribution width) is a measure of anisocytosis.
(§5) Measurements were performed with the following test substances (corresponding values for the control=100%): […]

Male Wistar rats [2] = assay: Clinical-chemical serum parameters after 7-day treatment of rats; format: in vivo, rat
Protocol: as §1, §2, §3, §4
Parameters such as enzymes, glucose, lipids, electrolytes, creatinin, urea and protein are detected selectively, method-oriented, photometrically or ion-selectively using the analyzer Cobas Mira. The supplemental report furnishes analysis-specific data of quality control and statistics.
The following clinical-chemical metabolic measurement values were analyzed in a combined method-specific manner: Bilirubin, creatinin, urea, glutamate oxalacetate transaminase (GOT), glutamate pyruvate transaminase (GPT), gamma-glutamyl transferase (GGT), glucose, cholesterol, triglycerides, calcium, sodium, potassium, chloride and total protein.
as §5

Male Wistar rats [3] = assay: Leucocyte/lymphocyte differentiation by flow cytometry after 7-day treatment of rats; format: in vivo, rat
Protocol: as §1, §2, §3, §4
The leucocyte differentiation was performed using the flow cytometer FACScan following appropriate lysing of the whole blood sample (scattered light measurement).
The lymphocyte differentiation was performed after specific monoclonal incubation by means of fluorescence-activated cell sorting (fluorescence measurement).
On the 7th day of treatment, there were analyzed quantitatively:
For determining the phenotypes of the lymphocytes, they were incubated with the following antibodies of Pharmingen, San Diego (USA), to which a fluorochrome was coupled:
5 μl each of the antibodies is incubated with 50 μl of Na-EDTA-blood at room temperature in the dark for 20 min. The suspension is agitated with 2 ml of Lyses Reagenz of Becton-Dickinson and incubated for 10 min as described. This followed by centrifuging at 400×g for 6 min, and the supernatant is poured off. The pellet is washed with 3 ml of Cell Wash and centrifuged at 400×g for 6 min. The pellet is taken up in 100 μl of Cell Wash. The suspension is analyzed by means of the flow cytometer.
as §5

Male Wistar rats [4] = assay: Histological examination of organs after 7-day treatment of rats; details: 7 days
Protocol: as §1, §2, §3, §4

[5] = tested on: healthy females in post-menopause; details: two-year study, 361 healthy females in post-menopause; cited from earlier work
[6] = change vs control (=100%), rats, intragastral once daily for 7 days, peripheral blood
[7] = change vs control (=100%), rats, 7 days intragastral, serum
[8] = change vs control (=100%), rats, 7th day of treatment, peripheral blood

SMILES	WBC (number of leucocytes) (Male Wistar rats [1]; [6])	AP (alkaline phosphatase) (Male Wistar rats [2]; [7])	Ca (Male Wistar rats [2]; [7])	GLDH (Male Wistar rats [2]; [7]) [%]	GOT (Male Wistar rats [2]; [7])	GPT (Male Wistar rats [2]; [7]) [%]	SP (acid phosphatase) (Male Wistar rats [2]; [7]) [%]	bilirubin (Male Wistar rats [2]; [7])	cholesterol (Male Wistar rats [2]; [7]) [%]	creatinin (Male Wistar rats [2]; [7]) [%]	glucose (Male Wistar rats [2]; [7])	triglycerides (Male Wistar rats [2]; [7])	urea (Male Wistar rats [2]; [7])	T lymphocytes (Male Wistar rats [3]; [8])	helper lymphocytes (Male Wistar rats [3]; [8])	lymphocytes (Male Wistar rats [3]; [8])	supp. lymphocytes (Male Wistar rats [3]; [8])	further results
O=P1(N(CCCl)CCCl)NCCCO1 (stereo not drawn) [CyS, Cyclophosphamide]	−51.3%	−14.7%	−23.2%	−21.3	−24.6%	−30.8	−9.1	+58.6%	−25	−28.3	+5.2%	+10.1%	unch.	−51% and −51.9%	−45.9%	−55.0%	−30.9%	B lymphocytes (Male Wistar rats [3]; [8]): −79.9%; polymorphs (polymorphonuclear granulocytes) (Male Wistar rats [3]; [8]): −28.1%; erythrocytes in thorn-apple form (acanthocytes) in bone marrow sinuses (Male Wistar rats [4]): encountered
[F-].[Na+] [NF, Sodium fluoride]	+13.8%	unch.	unch.	−17.3	−9.8%	−9.7	−7.5	+13.8%	−8.7	−20.7	+15.7%	−4.2%	−13.2%	did not induce an effect; also recorded: unch	did not induce an effect; also recorded: unch	unch.	did not induce an effect; also recorded: unch	
NS(=O)(=O)c1cc(C(=O)O)c(NCc2ccco2)cc1Cl [FUR, Furosemide]	+61.0%	−13.4%	−28.9%	−31.3	unch.	−24.4		+20.7%	−24.9	−49.7	unch.	−29.6%	−7.3%	+46.2%	+41.5%	+60.5%	unch.	RBC (number of erythrocytes) (Male Wistar rats [1]; [6]): unchanged
O=C([O-])[O-].[Ca+2] [CC, Calcium carbonate]			unch.															RBC (number of erythrocytes) (Male Wistar rats [1]; rat, in vivo): not increased; AP (alkaline phosphatase) (Male Wistar rats [2]; rat, in vivo): +5.5%; GLDH (Male Wistar rats [2]; rat, in vivo): +6.7%; GOT (Male Wistar rats [2]; rat, in vivo): −7.1%; GPT (Male Wistar rats [2]; rat, in vivo): unch.; SP (acid phosphatase) (Male Wistar rats [2]; rat, in vivo): unch.; bilirubin (Male Wistar rats [2]; rat, in vivo): −17.3%; cholesterol (Male Wistar rats [2]; rat, in vivo): unch.; creatinin (Male Wistar rats [2]; rat, in vivo): −19.7%; glucose (Male Wistar rats [2]; rat, in vivo): +6.7%; triglycerides (Male Wistar rats [2]; rat, in vivo): −7.8%; urea (Male Wistar rats [2]; rat, in vivo): −13.9%; inhibitory influence on bone mass losses [5]: only a slightly pronounced inhibitory influence; B lymphocytes (Male Wistar rats [3]; rat, in vivo): +7.6%; T lymphocytes (Male Wistar rats [3]; rat, in vivo): unch.; chemoprotective effect (Male Wistar rats [3]; rat, in vivo): neither showed positive effects in clinically healthy rats nor chemoprotective effects; helper lymphocytes (Male Wistar rats [3]; rat, in vivo): −4.3%; lymphocytes (Male Wistar rats [3]; rat, in vivo): unch.; polymorphs (polymorphonuclear granulocytes) (Male Wistar rats [3]; rat, in vivo): unch.; supp. lymphocytes (Male Wistar rats [3]; rat, in vivo): +12.4%
